The assay concerns the target Autotaxin (Homo sapiens, UniProt Q13822). As to the kind of experiment: The following assays and their respective methods are carried out with the compounds according to the present invention. […] Those skilled in the art will appreciate that a variety of assay formats may be used to determine the activity of the compounds of this invention.Autotaxin LPC Cascade Assay:Assay Buffer:100 mM Tris-HCl, pH=9500 mM NaCl5 mM MgCl25 mM CaCl20.05% Triton X 100Reagents:Enzyme Source Stock conc Working conc. Final conc. Autotaxin X-Chem 4.6 μM 20 nM 5 nM LPC Sigma L5254 8 mM in assay buffer 400 μM 100 μM Choline Oxidase Sigma C5896 50 U/mL in water 0.8 U/mL 0.1 U/mL HRP Sigma P8375 1000 U/mL in water 8 U/mL 1 U/mL Ampliflu Red Sigma 90101 100 mM in DMSO 400 μM 50 μM. Type of assay: […].

These results are taken from ChEMBL document CHEMBL5726751, “Substituted spirocyclic inhibitors of autotaxin” (2019).

A value given as a limit tells only on which side of the number the result lay.

In general, IC50 refers to the concentration that inhibits the measured activity by half. A lower IC50 goes with greater potency in that assay. Take `CC(C)[C@@H](NC(=O)c1cc(C(F)(F)F)ccc1F)C(=O)N1CCC2(CC1)C(=O)N(C)C(=O)N2c1ccc(OCCN(C)C)cc1`: the IC50 was > 1 µM.

Regarding `CC(C)[C@@H](NC(=O)c1ccc(C#N)c(Cl)c1)C(=O)N1CCC2(CC1)C(=O)N(C)CN2c1ccccc1`, the IC50 was > 1 µM. Take `CN1C(=O)N(c2ccc3[nH]ncc3c2)C2(CCN(C(=O)C3(NC(=O)c4cc(C(F)(F)F)ccc4F)COC3)CC2)C1=O`: the IC50 was > 1 µM. With `Cc1cccc(C(=O)N[C@@H](C(=O)N2CCC3(CC2)C(=O)N(C)CN3c2cccc(C#N)c2)C(C)C)c1F` the figure was > 1 µM. For `Cc1cccc(C(=O)N(C)[C@@H](C(=O)N2CCC3(CC2)C(=O)N(C)CN3c2ccccc2)C(C)C)c1`, the IC50 is > 1 µM.
